Test results published in patent US9957271B2, “Substituted bicyclic aza-heterocycles and analogues as sirtuin modulators” (GlaxoSmithKline, LLC, priority 2012, dated 2018).

Legend:
[1] = biological target: T1, SIRT1 (Homo sapiens, UniProt Q96EB6); assay: Trp mass spectrometry assay of SIRT1 activity; format: biochemical; details: for Emax: read-out: Trp % Fold Act; for Trp EC1.5 (μM): concentration giving 150% activation of SIRT1
T1 sequence (Q96EB6 1-747): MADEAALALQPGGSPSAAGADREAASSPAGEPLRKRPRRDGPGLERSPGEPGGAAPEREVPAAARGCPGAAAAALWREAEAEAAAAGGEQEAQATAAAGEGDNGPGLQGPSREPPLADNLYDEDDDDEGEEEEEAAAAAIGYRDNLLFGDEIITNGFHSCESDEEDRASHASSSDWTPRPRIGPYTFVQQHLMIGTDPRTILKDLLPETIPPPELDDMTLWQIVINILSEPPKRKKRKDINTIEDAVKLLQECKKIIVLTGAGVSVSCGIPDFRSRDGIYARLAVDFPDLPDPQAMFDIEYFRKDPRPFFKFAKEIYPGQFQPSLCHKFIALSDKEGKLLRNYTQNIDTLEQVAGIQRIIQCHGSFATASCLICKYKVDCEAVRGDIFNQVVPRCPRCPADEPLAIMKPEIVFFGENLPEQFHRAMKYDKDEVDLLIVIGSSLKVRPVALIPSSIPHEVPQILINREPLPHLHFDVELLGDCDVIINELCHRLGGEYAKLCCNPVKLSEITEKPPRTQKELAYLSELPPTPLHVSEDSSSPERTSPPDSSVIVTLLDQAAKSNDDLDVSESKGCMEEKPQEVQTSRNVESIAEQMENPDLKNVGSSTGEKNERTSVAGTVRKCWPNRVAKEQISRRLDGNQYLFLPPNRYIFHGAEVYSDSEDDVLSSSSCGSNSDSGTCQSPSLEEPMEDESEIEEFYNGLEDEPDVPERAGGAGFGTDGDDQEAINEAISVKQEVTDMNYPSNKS
Excerpt: Mass spectrometry based assays were used to identify modulators of SIRT1 activity. The TAMRA based assay utilized a peptide having 20 amino acid residues as follows: Ac-EE-K(biotin)-[…](Ac)NleSTEG-K(5TMR)-EE-NH2 (SEQ ID NO: 1), wherein K(Ac) is an acetylated lysine residue and Nle is a norleucine. The peptide was labeled with the fluorophore 5TMR (excitation 540 nm/emission 580 nm) at the C-terminus. The sequence of the peptide substrate was based on p53 with several modifications. In addition, the methionine residue naturally present in the sequence was replaced with the norleucine because the methionine may be susceptible to oxidation during synthesis and purification. The Trp based assay utilized a peptide having an amino acid residues as follows: Ac-R-H-K-K(Ac)-W-NH2 (SEQ ID NO: 2).
The Trp mass spectrometry assay was conducted as follows. 0.5 μM peptide substrate and 120 μM βNAD^+ were incubated with 10 nM SIRT1 for 25 minutes at 25° C. in a reaction buffer (50 mM HEPES pH 7.5, […], 1 mM DTT, 0.05% BSA). The SIRT1 protein was obtained by cloning the SirT1 gene into a T7-promoter containing vector, which was then expressed in BL21(DE3) bacterial cells and purified as described in further detail below. Test compound was added at varying concentrations to this reaction mixture and the resulting reactions were monitored. After the 25 minute incubation with SIRT1, 10 μL of 10% formic acid was added to stop the reaction. The resulting reactions were sealed and frozen for later mass spec analysis. The relative SIRT1 activity was then determined by measuring the amount of O-acetyl-ADP-ribose (OAADPR) formed (or, alternatively, the amount of deacetylated Trp peptide generated) by the NAD-dependent sirtuin deacetylation reaction in the presence of varying concentrations of the test compound versus control reactions lacking the test compound. The degree to which the test agent activated deacetylation by SIRT1 was expressed as EC1.5 (i.e., the concentration of compound required to increase SIRT1 activity by 50% over the control lacking test compound), and Percent Maximum Activation (i.e., the maximum activity relative to control (100%) obtained for the test compound).
A control for inhibition of sirtuin activity was conducted by adding 1 μL of 500 mM nicotinamide as a negative control at the start of the reaction (e.g., permits determination of maximum sirtuin inhibition). A control for activation of sirtuin activity was conducted using 10 nM of sirtuin protein, with 1 μL of DMSO in place of compound, to determine the amount of deacetylation of the substrate at a given time point within the linear range of the assay. This time point was the same as that used for test compounds and, within the linear range, the endpoint represents a change in velocity.
For the above assay, SIRT1 protein was expressed and purified as follows. The SirT1 gene was cloned into a T7-promoter containing vector and transformed into BL21(DE3). The protein was expressed by induction with 1 mM IPTG as an N-terminal His-tag fusion protein at 18° C. overnight and harvested at 30,000×g. Cells were lysed with lysozyme in lysis buffer (50 mM Tris-HCl, 2 mM Tris[2-carboxyethyl]phosphine (TCEP), 10 μM ZnCl2, 200 mM NaCl) and further treated with sonication for […] for complete lysis. The protein was purified over a Ni-NTA column (Amersham) and fractions containing pure protein were pooled, concentrated and run over a sizing column (Sephadex S200 26/60 global). The peak containing soluble protein was collected and run on an Ion-exchange column (MonoQ). Gradient elution (200 mM-500 mM NaCl) yielded pure protein. This protein was concentrated and dialyzed against dialysis buffer (20 mM Tris-HCl, 2 mM TCEP) overnight. The protein was aliquoted and frozen at −80° C. until further use.

[2] = biological target: T1, SIRT1; assay: TAMRA based mass spectrometry assay of SIRT1 activity; format: biochemical; details: for Emax: read-out: TAMRA % Fold Act
Procedure, shortened: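 Recombinant N-terminal His-tagged human SIRT1 (10 nM, E. coli) incubated 25 min at 25 °C with 0.5 μM 5TMR-labelled p53-derived acetyl-peptide and 120 μM βNAD+ in Tris-acetate pH 8 buffer with DTT and 0.05% BSA, compound at varying concentrations. Stopped with formic acid; deacetylated peptide or OAADPR measured by mass spectrometry relative to DMSO controls.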

[3] = Trp assay, percent maximum fold activation
[4] = percent maximum fold activation of SIRT1, Trp peptide substrate
[5] = concentration of test compound giving 150% activation of SIRT1, TAMRA peptide substrate
[6] = percent maximum fold activation of SIRT1, TAMRA peptide substrate
[7] = TAMRA peptide substrate, concentration giving 150% activation of SIRT1
[8] = TAMRA peptide substrate, percent maximum fold activation
[9] = TAMRA assay, concentration giving 150% activation of SIRT1
[10] = TAMRA assay, percent maximum fold activation

Cc1nc(NC(=O)c2cnc3ccc(N4CCCC4C(F)(F)F)nn23)sc1C (centres unmarked) [Compound 969]
Emax [1, 3]: ≥ 350%

CN1CCN(c2ccc3ncc(C(=O)Nc4cccnc4)n3n2)CC1 [Compound 946]
Trp EC1.5 (μM) ([1]; Trp assay): C (EC1.5>25 μM)
Emax [1, 3]: < 350%

O=C(Nc1ccc(F)cn1)c1cnc2ccc(N3CCC[C@H](F)C3)nn12 [Compound 988]
Emax [1, 3]: ≥ 350%

O=C(Nc1cccnn1)c1cnc2ccc(N3CCC[C@H](F)C3)nn12 [Compound 989]
Emax [1, 3]: ≥ 350%

O=C(Nc1cccnc1)c1cnc2ccc(N3CCC[C@@H]3C(F)(F)F)nn12 [Compound 1019]
Emax [1, 4]: ≥ 350%

CC1CCCN1c1ccn2ncc(C(=O)Nc3cncc(F)c3)c2n1 (centres unmarked) [Compound 1039]
Emax [1, 4]: ≥ 350%

O=C(Nc1cccnn1)c1cnc2ccc(N3CC[C@H](F)C3)nn12 [Compound 856]
Trp EC1.5 (μM) ([1]; Trp assay): B (EC1.5 1-25 μM)
Emax [1, 3]: < 350%

C[C@H]1CCCN1c1ccc2ncc(C(=O)Nc3ccc(F)cn3)n2n1 [Compound 1052]
Emax [1, 4]: < 350%

CC1CCCN1c1ccn2ncc(C(=O)Nc3ccccn3)c2n1 (centres unmarked) [Compound 1037]
Emax [1, 4]: ≥ 350%

O=C(Nc1ccccn1)c1cnn2ccc(N3CCCC3C(F)(F)F)nc12 (centres unmarked) [Compound 999]
Emax [1, 3]: ≥ 350%

O=C(Nc1ccncn1)c1cnc2ccc(N3CCCC3C(F)(F)F)nn12 (centres unmarked) [Compound 970, N-(pyrimidin-4-yl)-6-(2-(trifluoromethyl)pyrrolidin-1-yl)imidazo[1,2-b]pyridazine-3-carboxamide]
Emax [1, 3]: ≥ 350%

Cc1nc2ccc(N3CCC[C@H]3C(F)(F)F)nn2c1C(=O)Nc1cncc(F)c1 [Compound 1017]
Emax [1, 4]: ≥ 350%

CC1CCN(c2ccc3ncc(C(=O)Nc4ccncn4)n3n2)C1 (centres unmarked) [Compound 992]
Emax [1, 3]: < 350%

Cc1nc2ccc(N3CC[C@H](F)C3)nn2c1C(=O)Nc1ccncn1 [Compound 855]
Trp EC1.5 (μM) ([1]; Trp assay): B (EC1.5 1-25 μM)
Emax [1, 3]: ≥ 350%

O=C(Nc1cnc2c(c1)COCC2)c1cnc2ccc(N3CCCC3C(F)(F)F)nn12 (centres unmarked) [Compound 1095]
Emax [1, 4]: ≥ 350%

O=C(Nc1cccnc1)c1cnc2ccc(N3CCC(F)(F)CC3)nn12 [Compound 928]
Trp EC1.5 (μM) ([1]; Trp assay): B (EC1.5 1-25 μM)
Emax [1, 3]: < 350%

Cc1nn2ccc(N3CCC[C@@H]3C(F)(F)F)nc2c1C(=O)Nc1cncc(F)c1 [Compound 1069]
Emax [1, 4]: ≥ 350%

O=C(Nc1ccc(F)cn1)c1cnc2ccc(N3CC[C@H](F)C3)nn12 [Compound 838]
Trp EC1.5 (μM) ([1]; Trp assay): B (EC1.5 1-25 μM)
Emax [1, 3]: < 350%

CC1CCN(c2ccc3ncc(C(=O)Nc4ccc(F)cn4)n3n2)C1 (centres unmarked) [Compound 977]
Emax [1, 3]: < 350%

CN1CCc2ncc(NC(=O)c3cnc4ccc(N5CCCC5C(F)(F)F)nn34)cc2C1 (centres unmarked) [Compound 1094]
Emax [1, 4]: ≥ 350%

C[C@H]1CCCN1c1ccc2ncc(C(=O)Nc3cnccn3)n2n1 [Compound 1054]
Emax [1, 4]: < 350%

O=C(Nc1ccc(F)cn1)c1cnc2ccc(N3CCCC3)nn12 [Compound 897]
Trp EC1.5 (μM) ([1]; Trp assay): C (EC1.5>25 μM)
Emax [1, 3]: < 350%

O=C(Nc1ccncc1F)c1cnc2ccc(N3CCC(F)(F)CC3)nn12 [Compound 963]
Emax [1, 3]: < 350%

Cc1nn2ccc(N3CCC[C@H]3C(F)(F)F)nc2c1C(=O)Nc1ccncn1 [Compound 1048]
Emax [1, 4]: ≥ 350%

Cc1nn2ccc(N3CCC[C@H]3C(F)(F)F)nc2c1C(=O)Nc1cccnn1 [Compound 1034]
Emax [1, 4]: ≥ 350%

O=C(Nc1cccnc1)c1cnc2ccc(-c3c(F)cccc3F)nn12 [Compound 169]
TAMRA EC1.5 (μM) [2, 5]: C (EC1.5>25 μM)
Emax [2, 6]: < 350%

Cc1cc(NC(=O)c2cnc3c(C)cc(-c4ccccc4C(F)(F)F)nn23)ccn1 [Compound 540]
TAMRA EC1.5 [2, 7]: A (EC1.5<1 μM)
Emax [2, 8]: ≥ 350%

O=C(Nc1ccnc(N2CCC2)c1)c1cnc2ccc(-c3cccc(F)c3Cl)nn12 [Compound 179]
TAMRA EC1.5 (μM) [2, 5]: A (EC1.5<1 μM)
Emax [2, 6]: < 350%

Cc1cc(-c2ccccc2C(F)(F)F)nn2c(C(=O)Nc3ccnc(O[C@H]4CCOC4)n3)cnc12 [Compound 601]
TAMRA EC1.5 (μM) [2, 9]: A (EC1.5<1 μM)
Emax [2, 10]: ≥ 350%

Cc1cccc(NC(=O)c2cnc3ccc(-c4ccccc4OC[C@H](O)CO)nn23)n1 [Compound 804]
TAMRA EC1.5 (μM) [2, 9]: A (EC1.5<1 μM)
Emax [2, 10]: ≥ 350%

Cc1cncc(NC(=O)c2cnn3ccc(-c4ccccc4C(F)(F)F)nc23)c1 [Compound 632]
TAMRA EC1.5 (μM) [2, 9]: A (EC1.5<1 μM)
Emax [2, 10]: ≥ 350%

Cc1nc2ccc(-c3ccccc3C(F)F)nn2c1C(=O)Nc1ccnc(N2CCOCC2)c1 [Compound 72]
TAMRA EC1.5 (μM) [2, 5]: A (EC1.5<1 μM)
Emax [2, 6]: ≥ 350%

COCCn1cc(NC(=O)c2cnc3ccc(-c4ccccc4C(F)(F)F)nn23)ccc1=O [Compound 156]
TAMRA EC1.5 (μM) [2, 5]: B (EC1.5 1-25 μM)
Emax [2, 6]: < 350%

Cc1nccc(C(=O)Nc2cnn3ccc(-c4ccccc4OC(F)(F)F)nc23)n1 [Compound 726]
TAMRA EC1.5 (μM) [2, 9]: A (EC1.5<1 μM)
Emax [2, 10]: ≥ 350%

O=C(Nc1ccnc(OCC(O)CO)c1)c1cnc2ccc(-c3ccccc3C(F)(F)F)nn12 (centres unmarked) [Compound 89]
TAMRA EC1.5 (μM) [2, 5]: A (EC1.5<1 μM)
Emax [2, 6]: ≥ 350%

CCOc1nccc(NC(=O)c2cnc3c(C)cc(-c4ccccc4C(F)(F)F)nn23)n1 [Compound 596]
TAMRA EC1.5 [2, 7]: A (EC1.5<1 μM)
Emax [2, 8]: ≥ 350%
